Test system: 292921-168-R-J2-PDC complex spheroid growth
Assay: Anticancer human tumor 292921-168-R-J2-PDC patient-derived pancreatic carcinoma cell line growth inhibition [AhR]
Settings: for IC50: curve of first compound; for viability, T/C: stronger effect = lower value; active = viability on the fitted dose curve at most 10% of control; inactive = the rest
Method in brief: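 Spheroids combined tumor cells with HUVEC endothelial cells and human MSCs as stroma. AhR antagonists were paired with standard or investigational drugs, each dosed in half-log steps down from near clinical Cmax, or from 10 microM where Cmax was unknown.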

[1] = second compound 0.1 µM, first compound 0.000949 µM
[2] = second compound 0.1 µM, first compound 0.003 µM
[3] = second compound 0.1 µM, first compound 0.00949 µM
[4] = second compound 0.1 µM, first compound 0.03 µM
[5] = second compound 0.1 µM, first compound 0.0949 µM
[6] = second compound 0.1 µM, first compound 0.3 µM
[7] = second compound 0.316 µM, first compound 0.000949 µM
[8] = second compound 0.316 µM, first compound 0.003 µM
[9] = second compound 0.316 µM, first compound 0.00949 µM
[10] = second compound 0.316 µM, first compound 0.03 µM
[11] = second compound 0.316 µM, first compound 0.0949 µM
[12] = second compound 0.316 µM, first compound 0.3 µM
[13] = second compound 1 µM, first compound 0.000949 µM
[14] = second compound 1 µM, first compound 0.003 µM
[15] = second compound 1 µM, first compound 0.00949 µM
[16] = second compound 1 µM, first compound 0.03 µM
[17] = second compound 1 µM, first compound 0.0949 µM
[18] = second compound 1 µM, first compound 0.3 µM
[19] = second compound 3.16 µM, first compound 0.000949 µM
[20] = second compound 3.16 µM, first compound 0.003 µM
[21] = second compound 3.16 µM, first compound 0.00949 µM
[22] = second compound 3.16 µM, first compound 0.03 µM
[23] = second compound 3.16 µM, first compound 0.0949 µM
[24] = second compound 3.16 µM, first compound 0.3 µM
[25] = second compound 10 µM, first compound 0.000949 µM
[26] = second compound 10 µM, first compound 0.003 µM
[27] = second compound 10 µM, first compound 0.00949 µM
[28] = second compound 10 µM, first compound 0.03 µM
[29] = second compound 10 µM, first compound 0.0949 µM
[30] = second compound 10 µM, first compound 0.3 µM
[31] = second compound 0.1 µM, first compound 0.0316 µM
[32] = second compound 0.1 µM, first compound 0.1 µM
[33] = second compound 0.1 µM, first compound 0.316 µM
[34] = second compound 0.1 µM, first compound 1 µM
[35] = second compound 0.1 µM, first compound 3.16 µM
[36] = second compound 0.1 µM, first compound 10 µM
[37] = second compound 0.316 µM, first compound 0.0316 µM
[38] = second compound 0.316 µM, first compound 0.1 µM
[39] = second compound 0.316 µM, first compound 0.316 µM
[40] = second compound 0.316 µM, first compound 1 µM
[41] = second compound 0.316 µM, first compound 3.16 µM
[42] = second compound 0.316 µM, first compound 10 µM
[43] = second compound 1 µM, first compound 0.0316 µM
[44] = second compound 1 µM, first compound 0.1 µM
[45] = second compound 1 µM, first compound 0.316 µM
[46] = second compound 1 µM, first compound 1 µM
[47] = second compound 1 µM, first compound 3.16 µM
[48] = second compound 1 µM, first compound 10 µM
[49] = second compound 3.16 µM, first compound 0.0316 µM
[50] = second compound 3.16 µM, first compound 0.1 µM
[51] = second compound 3.16 µM, first compound 0.316 µM
[52] = second compound 3.16 µM, first compound 1 µM
[53] = second compound 3.16 µM, first compound 3.16 µM
[54] = second compound 3.16 µM, first compound 10 µM
[55] = second compound 10 µM, first compound 0.0316 µM
[56] = second compound 10 µM, first compound 0.1 µM
[57] = second compound 10 µM, first compound 0.316 µM
[58] = second compound 10 µM, first compound 1 µM
[59] = second compound 10 µM, first compound 3.16 µM
[60] = second compound 10 µM, first compound 10 µM
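Note: spheroids exposed to compounds for seven days after three days of growth.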

CC(C)CC(NC(=O)C(Cc1ccccc1)NC(=O)c1cnccn1)B(O)O (stereo not given) + Cc1ccccc1N=Nc1ccc(NC(=O)c2ccnn2C)c(C)c1
active: viability, T/C [4] 1.67% | viability, T/C [5] 0.43% | viability, T/C [6] 0.32% | viability, T/C [10] 1.24% | viability, T/C [11] 3.16% | viability, T/C [12] 0.68% | viability, T/C [16] 1.24% | viability, T/C [17] 0.41% | viability, T/C [18] 0.93% | viability, T/C [22] 1.68% | viability, T/C [23] 2.65% | viability, T/C [24] 0.81% | viability, T/C [28] 1.7% | viability, T/C [29] 1.05% | viability, T/C [30] 0.32%
3.97 nM: IC50 (second compound 10 µM)
5.13 nM: IC50 (second compound 3.16 µM)
6.09 nM: IC50 (second compound 0.316 µM)
inactive: viability, T/C [1] 91.6% | viability, T/C [2] 110% | viability, T/C [3] 23.4% | viability, T/C [7] 82% | viability, T/C [8] 102% | viability, T/C [9] 23.9% | viability, T/C [13] 82.3% | viability, T/C [14] 94.3% | viability, T/C [15] 23.8% | viability, T/C [19] 77.5% | viability, T/C [20] 82.8% | viability, T/C [21] 15.3% | viability, T/C [25] 59.9% | viability, T/C [26] 62% | viability, T/C [27] 15.7%
6.4 nM: IC50 (second compound 0.1 µM)
5.95 nM: IC50 (second compound 1 µM)

CCc1c2c(nc3ccc(O)cc13)-c1cc3c(c(=O)n1C2)COC(=O)[C@]3(O)CC + Cc1ccccc1N=Nc1ccc(NC(=O)c2ccnn2C)c(C)c1
3.34 nM: IC50 (second compound 1 µM)
active: viability, T/C [4] 7.99% | viability, T/C [5] 5.02% | viability, T/C [6] 2.76% | viability, T/C [10] 8.17% | viability, T/C [11] 3.89% | viability, T/C [12] 3.58% | viability, T/C [16] 9.76% | viability, T/C [17] 5.35% | viability, T/C [18] 2.94% | viability, T/C [22] 9.67% | viability, T/C [23] 5.09% | viability, T/C [24] 3.01% | viability, T/C [28] 10.8% | viability, T/C [29] 5.21% | viability, T/C [30] 3.01%
< 0.949 nM: IC50 (second compound 10 µM)
3.56 nM: IC50 (second compound 0.316 µM)
1.37 nM: IC50 (second compound 3.16 µM)
3.86 nM: IC50 (second compound 0.1 µM)
inactive: viability, T/C [1] 78.2% | viability, T/C [2] 58.5% | viability, T/C [3] 20% | viability, T/C [7] 68.3% | viability, T/C [8] 55.9% | viability, T/C [9] 17.3% | viability, T/C [13] 68.6% | viability, T/C [14] 53.6% | viability, T/C [15] 18.9% | viability, T/C [19] 54.4% | viability, T/C [20] 40.6% | viability, T/C [21] 16% | viability, T/C [25] 47.4% | viability, T/C [26] 40.9% | viability, T/C [27] 17.5%

COc1cc(Nc2ncc3c(n2)-c2ccc(Cl)cc2C(c2c(F)cccc2OC)=NC3)ccc1C(=O)O + Cc1ccccc1N=Nc1ccc(NC(=O)c2ccnn2C)c(C)c1
inactive: viability, T/C [31] 45.7% | viability, T/C [32] 37.9% | viability, T/C [33] 53.5% | viability, T/C [34] 45.1% | viability, T/C [35] 39.8% | viability, T/C [36] 29.1% | viability, T/C [37] 42.2% | viability, T/C [38] 42.6% | viability, T/C [39] 43% | viability, T/C [40] 41% | viability, T/C [41] 36.8% | viability, T/C [42] 30.3% | viability, T/C [43] 46.2% | viability, T/C [44] 34.2% | viability, T/C [45] 45.8% | viability, T/C [46] 42.7% | viability, T/C [47] 40.9% | viability, T/C [48] 24% | viability, T/C [49] 32.8% | viability, T/C [50] 35% | viability, T/C [51] 40.6% | viability, T/C [52] 36.5% | viability, T/C [53] 34.8% | viability, T/C [54] 23.1% | viability, T/C [55] 34% | viability, T/C [56] 35.5% | viability, T/C [57] 33.4% | viability, T/C [58] 33.8% | viability, T/C [59] 30% | viability, T/C [60] 20.5%
< 31.6 nM: IC50 (second compound 0.1 µM) | IC50 (second compound 0.316 µM) | IC50 (second compound 1 µM) | IC50 (second compound 3.16 µM) | IC50 (second compound 10 µM)

Nc1ccccc1NC(=O)c1ccc(CNC(=O)OCc2cccnc2)cc1 + Cc1ccccc1N=Nc1ccc(NC(=O)c2ccnn2C)c(C)c1
539 nM: IC50 (second compound 0.1 µM)
229 nM: IC50 (second compound 3.16 µM)
277 nM: IC50 (second compound 1 µM)
612 nM: IC50 (second compound 0.316 µM)
< 31.6 nM: IC50 (second compound 10 µM)
inactive: viability, T/C [31] 66.5% | viability, T/C [32] 65.1% | viability, T/C [33] 57% | viability, T/C [34] 40.9% | viability, T/C [35] 27.3% | viability, T/C [36] 12% | viability, T/C [37] 66.8% | viability, T/C [38] 65.8% | viability, T/C [39] 58.9% | viability, T/C [40] 42.8% | viability, T/C [41] 26.1% | viability, T/C [42] 12.8% | viability, T/C [43] 63.9% | viability, T/C [44] 54.5% | viability, T/C [45] 52.6% | viability, T/C [46] 35.9% | viability, T/C [47] 26.5% | viability, T/C [48] 12.3% | viability, T/C [49] 54% | viability, T/C [50] 55% | viability, T/C [51] 50.7% | viability, T/C [52] 33.4% | viability, T/C [53] 23.7% | viability, T/C [54] 10.3% | viability, T/C [55] 48.9% | viability, T/C [56] 42.7% | viability, T/C [57] 34.7% | viability, T/C [58] 32.3% | viability, T/C [59] 17.7%
active: viability, T/C [60] 8.67%

O=C(C=Cc1cccc(S(=O)(=O)Nc2ccccc2)c1)NO + Cc1ccccc1N=Nc1ccc(NC(=O)c2ccnn2C)c(C)c1
inactive: viability, T/C [31] 69% | viability, T/C [32] 64% | viability, T/C [33] 52% | viability, T/C [34] 39.7% | viability, T/C [35] 38.2% | viability, T/C [37] 74.9% | viability, T/C [38] 68.2% | viability, T/C [39] 55.4% | viability, T/C [40] 43.2% | viability, T/C [41] 36.9% | viability, T/C [43] 68.8% | viability, T/C [44] 59.1% | viability, T/C [45] 54.8% | viability, T/C [46] 38.8% | viability, T/C [47] 36.1% | viability, T/C [49] 65.8% | viability, T/C [50] 49% | viability, T/C [51] 49.1% | viability, T/C [52] 34.9% | viability, T/C [53] 35.2% | viability, T/C [55] 44.2% | viability, T/C [56] 41.6% | viability, T/C [57] 36.9% | viability, T/C [58] 33.8% | viability, T/C [59] 29.1%
579 nM: IC50 (second compound 0.1 µM)
active: viability, T/C [36] 3.35% | viability, T/C [42] 6.05% | viability, T/C [48] 3.74% | viability, T/C [54] 2.03% | viability, T/C [60] 4.17%
520 nM: IC50 (second compound 1 µM)
< 31.6 nM: IC50 (second compound 10 µM)
697 nM: IC50 (second compound 0.316 µM)
285 nM: IC50 (second compound 3.16 µM)

O=C(c1cc(Cc2n[nH]c(=O)c3ccccc23)ccc1F)N1CCN(C(=O)C2CC2)CC1 + Cc1ccccc1N=Nc1ccc(NC(=O)c2ccnn2C)c(C)c1
> 10000 nM: IC50 (second compound 0.1 µM) | IC50 (second compound 0.316 µM) | IC50 (second compound 1 µM) | IC50 (second compound 3.16 µM)
4550 nM: IC50 (second compound 10 µM)
inactive: viability, T/C [31] 80% | viability, T/C [32] 84.9% | viability, T/C [33] 92.9% | viability, T/C [34] 95.8% | viability, T/C [35] 89.6% | viability, T/C [36] 75.5% | viability, T/C [37] 79.4% | viability, T/C [38] 90% | viability, T/C [39] 86.8% | viability, T/C [40] 85.8% | viability, T/C [41] 84.5% | viability, T/C [42] 65.7% | viability, T/C [43] 77.8% | viability, T/C [44] 67.8% | viability, T/C [45] 79.2% | viability, T/C [46] 73.5% | viability, T/C [47] 82.8% | viability, T/C [48] 67.4% | viability, T/C [49] 69.2% | viability, T/C [50] 64.4% | viability, T/C [51] 72.5% | viability, T/C [52] 67.4% | viability, T/C [53] 63.6% | viability, T/C [54] 58.9% | viability, T/C [55] 50.6% | viability, T/C [56] 59.5% | viability, T/C [57] 54.6% | viability, T/C [58] 62.6% | viability, T/C [59] 49.7% | viability, T/C [60] 43.8%

Source: PubChem BioAssay AID1918994 (Molecular Pharmacology Branch, DTP, NCI, 2023)
